Measured values reported in PubChem BioAssay (NCI).
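Values below derive from 48-hour exposures of cells grown in 96-well plates, with endpoints linearly interpolated between the two concentrations bracketing the appropriate inhibition level. GI50 marks 50% less growth. TGI: total growth inhibition.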

Tests used:
Assay in all cases: NCI-60 cell line screen, 48 h
A498 renal = system: A498 renal
CAKI-1 renal = system: CAKI-1 renal
CCRF-CEM leukemia = system: CCRF-CEM leukemia
HOP-62 NSCLC = system: HOP-62 NSCLC
IGROV1 ovarian = system: IGROV1 ovarian
LOX IMVI melanoma = system: LOX IMVI melanoma
NCI-H460 lung = system: NCI-H460 lung
OVCAR-3 ovarian = system: OVCAR-3 ovarian
UO-31 renal = system: UO-31 renal

Row | SMILES | GI50 (A498 renal) [µM] | TGI (A498 renal) [µM] | GI50 (CAKI-1 renal) [µM] | TGI (CAKI-1 renal) [µM] | GI50 (CCRF-CEM leukemia) [µM] | TGI (CCRF-CEM leukemia) [µM] | GI50 (HOP-62 NSCLC) [µM] | TGI (HOP-62 NSCLC) [µM] | GI50 (IGROV1 ovarian) [µM] | TGI (IGROV1 ovarian) [µM] | GI50 (LOX IMVI melanoma) [µM] | TGI (LOX IMVI melanoma) [µM] | GI50 (NCI-H460 lung) [µM] | TGI (NCI-H460 lung) [µM] | GI50 (OVCAR-3 ovarian) [µM] | TGI (OVCAR-3 ovarian) [µM] | GI50 (UO-31 renal) [µM] | TGI (UO-31 renal) [µM]
1 | [pH]1p2[pH]p3p1p3[pH]2.c1cc[c]([Ge]([c]2ccccc2)[c]2ccccc2)cc1.c1cc[c]([Ge]([c]2ccccc2)[c]2ccccc2)cc1.c1cc[c]([Ge]([c]2ccccc2)[c]2ccccc2)cc1 | 15.8 | 30 | 20.6 | 44.8 | 28 | > 100 | 28.7 | 66.1 | 30 | 62.5 | 14.4 | 30.4 | 6.95 | 27.5 | 10.9 | 23.4 | 16.3 | 29.8
2 | CN1CCN(CCCCCOc2cc(O)c3c(=O)cc(-c4ccccc4)oc3c2)CC1 | 24.3 | 42.8 | – | – | – | – | 2.96 | 8.54 | 2.41 | 5.64 | 1.6 | 2.95 | 3.27 | 11.3 | 3.45 | 8.1 | 1.71 | 3.55
3 | Cc1c(C(=O)/C=C/c2ccc([N+](=O)[O-])cc2)[n+](=O)c2ccccc2n1[O-] | – | > 100 | – | > 100 | – | 99.2 | – | > 100 | – | > 100 | – | > 100 | – | > 100 | – | > 100 | – | > 100
4 | Oc1ccc(I)c2cccnc12 | – | > 100 | – | – | – | 9.68 | – | > 100 | – | 39.3 | – | 46.3 | – | 20.2 | – | > 100 | – | 32.5
5 | O=C(CC(=O)N1N=C(n2ccc3ccccc32)CC1c1ccccc1)Nc1ccccc1Cl (stereo not given) | – | > 100 | – | – | – | > 100 | – | > 100 | – | > 100 | – | > 100 | – | > 100 | – | > 100 | – | > 100
6 | NC(=S)N/N=C/C(O[C@@H](/C=N/NC(N)=S)CO)n1cnc2c(N)ncnc21 (stereo not given in full) | – | > 100 | – | > 100 | – | > 100 | – | > 100 | – | > 100 | – | > 100 | – | > 100 | – | > 94.5 | – | > 100
7 | CC1CN1c1c(C(=O)/C=C/c2ccc(F)cc2)c(-c2ccccc2)nn(C)c1=O (stereo not given) | – | – | – | – | – | 48.8 | – | 38.9 | – | 40.2 | – | 26.9 | – | 36.3 | – | 28.9 | – | 25.5
8 | O=c1[nH]c(-c2ccccc2)nc2cc([N+](=O)[O-])c(/C(Cl)=C/c3ccccc3)cc12 | – | – | – | > 100 | – | – | – | – | – | > 100 | – | – | – | – | – | > 100 | – | > 100
9 | CC(=O)[CH-]C(=O)c1ccccc1.CC(=O)[CH-]C(=O)c1ccccc1.CC[C@H](CCC(C)[C@H]1CCC2[C@@H]3CC=C4C[C@@H]([O-])CC[C@]4(C)C3CC[C@@]21C)C(C)C.CC[C@H](CCC(C)[C@H]1CCC2[C@@H]3CC=C4C[C@@H]([O-])CC[C@]4(C)C3CC[C@@]21C)C(C)C.Cl.[Ti+4] (stereo not given in full) | > 25 | > 25 | – | > 25 | – | > 25 | – | > 25 | – | > 25 | – | > 25 | – | > 25 | – | > 25 | – | > 25
10 | CC(=O)[CH-]C(=O)c1ccccc1.CC(=O)[CH-]C(=O)c1ccccc1.CC(=O)[CH-]C(=O)c1ccccc1.[Cl-].[Hf+4] | 25.5 | 75.5 | 20.1 | 62.6 | 9.36 | > 100 | 51.2 | > 100 | 47 | > 100 | 14.4 | 92.2 | 38.5 | > 100 | 13.6 | > 100 | – | –
11 | CC(=O)NNc1nc(C)c(C(=O)/C=C/c2ccc(N(C)C)cc2)s1 | – | > 100 | – | > 100 | – | > 100 | – | > 100 | – | > 100 | – | > 100 | – | > 100 | – | > 100 | – | > 100
12 | C=CCc1cc(OC)c(O)c(C(=O)/C=C/c2ccc(OC)c(OC)c2)c1 | – | 39.7 | – | 58.7 | – | 56.4 | – | – | – | > 100 | – | 91.8 | – | > 100 | – | 41.3 | – | 29.6
13 | O=C(Nc1ccc(Nc2ccc(NC(=O)c3ccccc3)c3c2C(=O)c2ccccc2C3=O)c2c1C(=O)c1ccccc1C2=O)c1ccccc1 | – | > 100 | – | > 100 | – | > 100 | – | > 100 | – | > 100 | – | – | – | > 100 | – | > 100 | – | > 100
14 | COc1ccc(C(=O)C(c2ccc(OC)cc2)C2(O)C(=O)Nc3c(Cl)cc(Cl)cc32)cc1 (stereo not given) | – | – | – | 49.6 | – | 44.2 | – | 54.4 | – | – | – | 44 | – | 49.9 | – | 49.9 | – | 62.2
15 | CCP(C)(=O)CC | – | – | – | > 100 | – | > 100 | – | > 100 | – | > 100 | – | > 100 | – | > 100 | – | > 100 | – | > 100
16 | O=C1CC[C@@H](S(=O)(=O)c2ccccc2)[C@H](/C=C/c2ccccc2)O1 | – | > 100 | – | – | – | > 100 | – | > 100 | – | > 100 | – | > 100 | – | > 100 | – | > 100 | – | > 100

Row | SMILES | GI50 (A498 renal) [µM] | TGI (A498 renal) [µM] | GI50 (CAKI-1 renal) [µM] | TGI (CAKI-1 renal) [µM] | GI50 (CCRF-CEM leukemia) [µM] | TGI (CCRF-CEM leukemia) [µM] | GI50 (HOP-62 NSCLC) [µM] | TGI (HOP-62 NSCLC) [µM] | GI50 (IGROV1 ovarian) [µM] | TGI (IGROV1 ovarian) [µM] | GI50 (LOX IMVI melanoma) [µM] | TGI (LOX IMVI melanoma) [µM] | GI50 (NCI-H460 lung) [µM] | TGI (NCI-H460 lung) [µM] | GI50 (OVCAR-3 ovarian) [µM] | TGI (OVCAR-3 ovarian) [µM] | GI50 (UO-31 renal) [µM] | TGI (UO-31 renal) [µM]
17 | Cc1[nH]c2ccccc2c1/C=C/c1c(C)[nH]c2ccccc12 | – | > 100 | – | > 100 | – | > 100 | – | > 100 | – | > 100 | – | – | – | > 100 | – | > 100 | – | > 100
18 | Nc1nc2c(ncn2C2OC(CO)C(O)C2O)c(=O)o1 (stereo not given) | – | > 100 | – | > 100 | – | > 100 | – | > 100 | – | > 100 | – | > 100 | – | > 100 | – | > 100 | – | > 100
19 | CCOC(=O)C1(C)C2=CC=C(O2)C(C)(C)C2=CC=C(O2)C(C)(C)C2=CC=C(O2)C(C)(C)C2=CC=C1O2 | – | > 100 | – | > 100 | – | > 100 | – | > 100 | – | > 100 | – | > 100 | – | > 100 | – | – | – | –
20 | Cc1cc(C)c([O-])c(-[n+]2c(-c3ccccc3)cc(-c3ccccc3)cc2-c2ccccc2)c1 | – | – | – | 22.1 | – | 10.1 | – | 22.8 | – | 19.9 | – | 11.1 | – | 15.8 | – | 12 | – | 33.7
21 | NNC(=O)N/N=C(/CC1(O)C(=O)Nc2ccc(Br)cc21)c1ccccc1 (stereo not given) | – | – | – | > 100 | – | 65.2 | – | – | – | > 100 | – | 35.1 | – | – | – | > 100 | – | 49.3
22 | O=C1C=C(Nc2cc(Cl)ccc2Cl)c2ccccc2C1=O | – | 52 | – | 75.5 | – | – | – | 72.9 | – | > 100 | – | – | – | 88.9 | – | 63.7 | – | > 100
23 | CN(C)CC1CCCC/C1=N\OC(=O)c1ccccc1 (stereo not given) | – | > 100 | – | > 100 | – | > 100 | – | > 100 | – | > 100 | – | > 100 | – | > 100 | – | > 100 | – | > 100
24 | CS(=O)(=O)ON1C(=O)c2ccc(N)cc2C1=O | – | > 100 | – | – | – | > 76.7 | – | > 100 | – | > 100 | – | > 100 | – | > 100 | – | > 100 | – | > 100
25 | N=C1C(c2nc3ccccc3c(=O)[nH]2)=C(O)CN1c1cccc(Cl)c1 | 1.9 | 17.1 | 3.11 | > 29.3 | 2.88 | > 100 | 4.7 | > 100 | 37.6 | > 100 | 5.68 | > 100 | 3.72 | > 85.6 | 2.15 | 5.06 | 13.3 | > 100
26 | [CH3][Ge]([CH3])([CH2]CC#N)[S]c1ccccc1 | – | – | 21.3 | 43.7 | 1.38 | 4.35 | 14.6 | 38.1 | 0.371 | 1.28 | 4.36 | 16.9 | 16.3 | 29.8 | 12.3 | 29.1 | 10.5 | 22.3
27 | C=C1C2CCCC1C1(S(C)(=O)=O)CCCCC21O (stereo not given) | – | – | – | > 100 | – | – | – | – | – | > 100 | – | – | – | > 100 | – | > 100 | – | > 100
28 | COC12OCCN(C)C1=CC(=O)C1N=NCC12 (stereo not given) | – | > 100 | – | > 100 | – | > 100 | – | – | – | > 100 | – | > 100 | – | > 100 | – | > 100 | – | > 100
29 | COC1(OC)CCC2(C)OC(c3ccccc3)C1O2 (stereo not given) | – | – | – | > 100 | – | > 100 | – | > 100 | – | > 100 | – | > 100 | – | > 100 | – | > 100 | – | > 100
30 | NC(N)=NCCCC(Nc1c2ccccc2nc2ccccc12)C(=O)O (stereo not given) | – | – | – | > 100 | – | > 100 | – | – | – | – | – | > 100 | – | > 100 | – | > 100 | – | –
31 | COc1c(CC(C)=O)c2ccccc2n1C(C)=O | – | > 100 | – | > 100 | – | > 100 | – | > 100 | – | > 100 | – | – | – | > 100 | – | > 100 | – | > 100
32 | Cc1cc(NS(=O)(=O)c2ccc(NC(=O)c3cccc4c(Nc5ccc(S(=O)(=O)Nc6cc(C)on6)cc5)c5ccc(Cl)cc5nc34)cc2)no1 | – | > 100 | – | > 100 | – | > 100 | – | > 100 | – | > 100 | – | > 100 | – | > 100 | – | > 100 | – | 86.3
